In patent US20250319056A1, “METHODS FOR TREATING CANCER” (THE TRUSTEES OF INDIANA UNIVERSITY, priority 2024, published 2025):
Read-outs that look alike come from different tables or passages of the source.

Columns and labels:
DLD-1 cells = experiment: AlamarBlue cell viability assay, DLD-1 colon cancer cells; format: cell-based; details: Homo sapiens, 48 h with compound, ^BP = curve baseline plateaued between ~10-20%, read-out: Human Cell Viability EC50 Colon Cancer (DLD1)
HCT-116 cells = experiment: AlamarBlue cell viability assay, HCT-116 colon cancer cells; format: cell-based, human; details: for Average Selectivity Index: CC50 non-cancer cells (FHC, FHs 74Int) compared to EC50 HCT-116; for EC50: read-out: Human Cell Viability EC50 Colon Cancer (HCT 116)
[1] = AlamarBlue cell viability assay, non-cancerous colon FHC cells; details: human, FHC non-cancerous colon cells, Human Cell Viability CC50 Colon (FHC), non-cancerous colon cells, AlamarBlue, 48 h
GroEL/ES = target: T1, GroEL/ES (Escherichia coli, UniProt P0A6F5); experiment: GroEL/ES-dMDH refolding assay; format: biochemical, E. coli
T1 construct: made in house; host or cells: NEB 5-alpha E. coli for GroEL; E. coli BL21 (DE3) for GroES

[2] = AlamarBlue cell viability assay, non-cancerous intestine FHs-74Int cells; details: human, FHs-74Int non-cancerous intestine cells, Human Cell Viability CC50 Intestine (FHs 74Int), non-cancerous intestine cells, AlamarBlue, 48 h
HT-29 cells = experiment: AlamarBlue cell viability assay, HT-29 colon cancer cells; format: cell-based; details: Homo sapiens, 48 h with compound, ^BP = curve baseline plateaued between ~10-20%
mHSP60/10 = target: T2, mHSP60/10 (Homo sapiens, UniProt P10809); experiment: mHSP60/10-mediated dMDH refolding assay; format: biochemical
T2 construct: Processed human HSP60 (mHSP60—that would be in mitochondria) was expressed in Rosetta™ 2 (DE3) E. coli; octa-Histidine tag (TEV-cleavable) (N, cleaved yes); made in house; host or cells: E. coli Rosetta 2 (DE3) for mHSP60; Rosetta 2 (DE3) pLysS for HSP10

NCI-60 cancer cell panel [3] = experiment: NCI-60 panel single-dose cell growth screen; format: cell-based; details: single dose 10 μM; 0 = cytostatic, -100% = cytocidal, +100% = growth
Experimental: FIGS. 10A-10J show cell growth results for 10 lead candidate inhibitors (compound 162, FIG. 10A; compound 163, FIG. 10B; compound 164, FIG. 10C; compound 4, FIG. 10D; compound 165, FIG. 10E; compound 139, FIG. 10F; compound 132, FIG. 10G; compound 143, FIG. 10H; compound 147, FIG. 10I; compound 128, FIG. 10J) tested at 10 μM against the NCI cancer cell panel. Zero indicates no cells growth/death from what was initially plated (cytostatic inhibition). −100% indicates […] (cytocidal inhibition). +100% indicates cell growth.
In a previous study evaluating the anti-cancer effects of ABK inhibitors, the National Cancer Institute (NCI) database was explored for existing cytotoxicity results for any compounds bearing α,β-unsaturated ketone moieties against the comprehensive NCI-60 cancer cell panel. […] The HQ-NAH and NF-NAH inhibitor library was explored based on the similarity to Nifuroxazide's scaffold. […] Initial screening was performed at a single concentration of 10 μM, and cell growth results are presented in aggregate based on cancer cell origin (FIGS. 10A-10J).

NCI-60 cancer cell panel [4] = experiment: NCI-60 panel dose-response cell growth testing; format: cell-based; details: follow-up dose response, range across NCI-60 cell lines
Description: FIGS. 11A-11G show cell growth results in dose-response for 7 lead candidate inhibitors (compound 162, FIG. 11A; compound 164, FIG. 11B; compound 128, FIG. 11C compound 165, FIG. 11D; compound 139, FIG. 11E; compound 143, FIG. 11F; compound 147, FIG. 11G) from initial single-dose NCI-60 screen.
Therefore, they appeared to act in a cytocidal manner.

[5] = Homo sapiens, HCT-116, 48 h, AlamarBlue, 48 h with compound
[6] = denatured malate dehydrogenase client, read-out: IC50 mHSP60/10-dMDH refolding

T2 sequence (P10809 27-573): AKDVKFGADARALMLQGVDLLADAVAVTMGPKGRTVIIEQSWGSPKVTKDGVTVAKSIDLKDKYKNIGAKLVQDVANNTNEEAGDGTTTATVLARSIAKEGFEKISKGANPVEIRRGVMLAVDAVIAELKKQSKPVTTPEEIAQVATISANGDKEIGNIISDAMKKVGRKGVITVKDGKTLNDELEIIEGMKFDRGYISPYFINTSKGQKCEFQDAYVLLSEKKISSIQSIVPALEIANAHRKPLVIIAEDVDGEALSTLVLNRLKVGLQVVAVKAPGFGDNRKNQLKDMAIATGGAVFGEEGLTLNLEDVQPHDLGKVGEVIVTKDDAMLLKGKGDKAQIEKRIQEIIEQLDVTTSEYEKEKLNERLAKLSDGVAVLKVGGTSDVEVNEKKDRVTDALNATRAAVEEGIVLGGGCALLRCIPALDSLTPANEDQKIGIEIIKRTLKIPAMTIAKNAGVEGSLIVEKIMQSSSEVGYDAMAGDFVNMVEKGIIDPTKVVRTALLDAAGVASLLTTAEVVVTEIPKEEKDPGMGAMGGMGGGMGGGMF
T1 sequence (P0A6F5 2-548): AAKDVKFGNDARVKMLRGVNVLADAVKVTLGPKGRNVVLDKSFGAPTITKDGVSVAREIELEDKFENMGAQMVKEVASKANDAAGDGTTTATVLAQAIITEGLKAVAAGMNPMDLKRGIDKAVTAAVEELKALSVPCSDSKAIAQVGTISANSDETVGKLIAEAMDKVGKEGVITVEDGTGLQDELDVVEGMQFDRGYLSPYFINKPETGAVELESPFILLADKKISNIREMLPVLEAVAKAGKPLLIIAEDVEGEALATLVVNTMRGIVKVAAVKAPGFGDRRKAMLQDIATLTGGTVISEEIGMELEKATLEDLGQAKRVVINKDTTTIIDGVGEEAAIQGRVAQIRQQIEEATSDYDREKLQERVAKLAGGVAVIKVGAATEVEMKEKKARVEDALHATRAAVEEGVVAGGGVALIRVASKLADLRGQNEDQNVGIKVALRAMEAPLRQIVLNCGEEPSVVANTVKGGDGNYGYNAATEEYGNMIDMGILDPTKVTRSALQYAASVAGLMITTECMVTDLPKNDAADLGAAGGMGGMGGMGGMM

O=C(/C=C/c1cccc([N+](=O)[O-])c1)c1ccc(NC(=O)c2ccco2)cc1 [Compound 4, (E)-N-(4-(3-(3-nitrophenyl)acryloyl)phenyl)furan-2-carboxamide]
EC50 (DLD-1 cells): 39.7 µM
Average Selectivity Index (HCT-116 cells): 19.1
EC50 (HCT-116 cells; [5]): 4 µM
CC50 at 48 h [1]: > 100 µM
IC50 (GroEL/ES): 0.8 to 9 µM
CC50 at 48 h [2]: 54 µM
EC50 (HT-29 cells): 3.6 µM
IC50 (mHSP60/10; [6]): 0.8 to 9 µM
cell growth % NCI cancer cell panel (NCI-60 cancer cell panel [3]): largely inactive

COc1ccc(-c2ccc3cc(C(=O)O)ccc3c2)cc1C12CC3CC(CC(C3)C1)C2 [Compound 25, Adapalene, reference compound]
EC50 (DLD-1 cells): 7.9 µM
Average Selectivity Index (HCT-116 cells): 5.4
EC50 (HCT-116 cells; [5]): 5.8 µM
CC50 at 48 h [1]: 43.7 µM
IC50 (GroEL/ES): 0.8 to 9 µM
CC50 at 48 h [2]: 18.5 µM
EC50 (HT-29 cells): 5.3 µM
IC50 (mHSP60/10; [6]): 0.8 to 9 µM

Oc1c(Cl)cc(Cl)c(Cl)c1Cc1c(O)c(Cl)cc(Cl)c1Cl [Compound 32, Hexachlorophene, reference compound]
EC50 (HCT-116 cells; Homo sapiens, HCT-116, 48 h): 4.6 µM
IC50 (GroEL/ES): 0.8 to 9 µM
IC50 (mHSP60/10): 0.8 to 9 µM

CN(C)c1ccc(C(=C2C=CC(=[N+](C)C)C=C2)c2ccc(N(C)C)cc2)cc1 [Compound 56, Crystal Violet, reference compound]
EC50 (DLD-1 cells): 0.2 µM
EC50 (HCT-116 cells; AlamarBlue, 48 h with compound): 0.5 µM
Average Selectivity Index (HCT-116 cells): 9.4
EC50 (HCT-116 cells; [5]): 0.54 µM
CC50 at 48 h [1]: 8.6 µM
IC50 (GroEL/ES): 0.8 to 9 µM
CC50 at 48 h [2]: 1.6 µM
EC50 (HT-29 cells): 0.1 µM
IC50 (mHSP60/10; [6]): 0.8 to 9 µM

CCCCCOc1ccc(/C=C2\Oc3c(ccc(O)c3O)C2=O)c(O)c1 [Compound 86]
EC50 (DLD-1 cells): 23 µM
Average Selectivity Index (HCT-116 cells): 8.0
EC50 (HCT-116 cells; [5]): 12.5 µM
CC50 at 48 h [1]: > 100 µM
IC50 (GroEL/ES): 0.8 to 9 µM
CC50 at 48 h [2]: > 100 µM
EC50 (HT-29 cells): 5.9 µM
IC50 (mHSP60/10; [6]): 0.8 to 9 µM

Oc1cccc(C(Nc2nccs2)c2ccc3cccnc3c2O)c1 (stereo not drawn) [Compound 90]
EC50 (DLD-1 cells): 15 µM
Average Selectivity Index (HCT-116 cells): 26.2
EC50 (HCT-116 cells; [5]): 2.5 µM
CC50 at 48 h [1]: 66.6 µM
IC50 (GroEL/ES): 0.8 to 9 µM
CC50 at 48 h [2]: 64.6 µM
EC50 (HT-29 cells): 8.3 µM
IC50 (mHSP60/10; [6]): 0.8 to 9 µM

O=C(N/N=C/c1ccc([N+](=O)[O-])o1)c1cccc(Oc2ccccc2)c1 [Compound 128, N′-((5-nitrofuran-2-yl)methylene)-3-phenoxybenzohydrazide]
EC50 (DLD-1 cells): 7.3 µM
Average Selectivity Index (HCT-116 cells): 17.4
EC50 (HCT-116 cells; [5]): 3.5 µM
CC50 at 48 h [1]: 61 µM
GI50 (NCI-60 cancer cell panel [4]): 1 to 31 µM
CC50 at 48 h [2]: 60 µM
EC50 (HT-29 cells): 1.6 µM
cell growth % NCI cancer cell panel (NCI-60 cancer cell panel [3]): a range of positive, negative, and zero growth

O=C(N/N=C/c1ccc(O)c2ncccc12)c1ccccc1 [Compound 137]
EC50 (DLD-1 cells): 2.8 µM
Average Selectivity Index (HCT-116 cells): 11
EC50 (HCT-116 cells; [5]): 6.1 µM
CC50 at 48 h [1]: 74 µM
CC50 at 48 h [2]: 57 µM
EC50 (HT-29 cells): 2.5 µM

O=C(N/N=C/c1ccc(O)c2ncccc12)c1ccc(O)cc1 [Compound 139, 4-hydroxy-N′-((8-hydroxyquinolin-5-yl)methylene)benzohydrazide]
EC50 (DLD-1 cells): 19 µM
Average Selectivity Index (HCT-116 cells): 11
EC50 (HCT-116 cells; [5]): 7.4 µM
CC50 at 48 h [1]: > 100 µM
GI50 (NCI-60 cancer cell panel [4]): 1 to 5 µM
CC50 at 48 h [2]: 56 µM
EC50 (HT-29 cells): 6.3 µM
cell growth % NCI cancer cell panel (NCI-60 cancer cell panel [3]): around 0%

O=C(N/N=C/c1ccc(O)c2ncccc12)c1cccc2ccccc12 [Compound 141]
EC50 (DLD-1 cells): 1.6 µM
Average Selectivity Index (HCT-116 cells): 13
EC50 (HCT-116 cells; [5]): 4.1 µM
CC50 at 48 h [1]: 46 µM
CC50 at 48 h [2]: 60 µM
EC50 (HT-29 cells): 1.5 µM

O=C(N/N=C/c1ccc(O)c2ncccc12)c1ccccc1Oc1ccccc1 [Compound 142]
EC50 (DLD-1 cells): 1.6 µM
Average Selectivity Index (HCT-116 cells): 13
EC50 (HCT-116 cells; [5]): 6.3 µM
CC50 at 48 h [1]: 71 µM
CC50 at 48 h [2]: 87 µM
EC50 (HT-29 cells): 3.7 µM

O=C(N/N=C/c1ccc(O)c2ncccc12)c1cccc(Oc2ccccc2)c1 [Compound 143, N′-((8-hydroxyquinolin-5-yl)methylene)-3-phenoxybenzohydrazide]
Average Selectivity Index (HCT-116 cells): 4.8
EC50 (HCT-116 cells; [5]): 6.5 µM
CC50 at 48 h [1]: 41 µM
GI50 (NCI-60 cancer cell panel [4]): 0.2 to 0.4 µM
CC50 at 48 h [2]: 21 µM
cell growth % NCI cancer cell panel (NCI-60 cancer cell panel [3]): negative % growth

CCN(CC)S(=O)(=O)c1cccc(C(=O)N/N=C/c2ccc(O)c3ncccc23)c1 [Compound 144]
EC50 (DLD-1 cells): 1.3 µM
Average Selectivity Index (HCT-116 cells): 9.5
EC50 (HCT-116 cells; [5]): 4.9 µM
CC50 at 48 h [1]: 34 µM
CC50 at 48 h [2]: 59 µM
EC50 (HT-29 cells): 4.4 µM

O=C(N/N=C/c1ccc(O)c2ncccc12)c1ccc(NS(=O)(=O)c2cccs2)cc1 [Compound 145]
EC50 (DLD-1 cells): 5.7 µM
Average Selectivity Index (HCT-116 cells): 6.2
EC50 (HCT-116 cells; [5]): 2.4 µM
CC50 at 48 h [1]: 24 µM
CC50 at 48 h [2]: 6.1 µM
EC50 (HT-29 cells): 2.9 µM

O=C(N/N=C/c1ccc(O)c2ncccc12)c1ccc(NS(=O)(=O)c2ccc(Br)cc2)cc1 [Compound 146]
EC50 (DLD-1 cells): 6 µM
Average Selectivity Index (HCT-116 cells): 14
EC50 (HCT-116 cells; [5]): 5.2 µM
CC50 at 48 h [1]: 59 µM
CC50 at 48 h [2]: 91 µM
EC50 (HT-29 cells): 1.4 µM

COc1ccc(C(=O)N/N=C/c2ccc(O)c3ccccc23)cc1 [Compound 148]
CC50 (FHs-74Int cells): > 100 µM
CC50 (FHC cells): > 100 µM

O=C(N/N=C/c1ccc(O)c2ccccc12)c1ccccc1 [Compound 149]
CC50 (FHs-74Int cells): > 100 µM
CC50 (FHC cells): > 100 µM

COc1ccc(C(=O)N/N=C/c2cccc3ncccc23)cc1 [Compound 150]
CC50 (FHs-74Int cells): > 100 µM
CC50 (FHC cells): > 100 µM

O=C(N/N=C/c1cccc2ncccc12)c1ccccc1 [Compound 151]
CC50 (FHs-74Int cells): > 100 µM
CC50 (FHC cells): > 100 µM

COc1ccc(C(=O)N/N=C/c2cccc3ccccc23)cc1 [Compound 152]
CC50 (FHs-74Int cells): > 100 µM
CC50 (FHC cells): > 100 µM

O=C(N/N=C/c1cccc2ccccc12)c1ccccc1 [Compound 153]
CC50 (FHs-74Int cells): > 100 µM
CC50 (FHC cells): ≥ 100 µM

COc1ccc(C(=O)N/N=C/c2ccc(O)cc2)cc1 [Compound 154]
CC50 (FHs-74Int cells): > 100 µM
CC50 (FHC cells): > 100 µM

O=C(N/N=C/c1ccc(O)cc1)c1ccccc1 [Compound 155]
CC50 (FHs-74Int cells): > 100 µM
CC50 (FHC cells): > 100 µM

COc1ccc(C(=O)N/N=C/c2ccccc2)cc1 [Compound 156]
CC50 (FHs-74Int cells): > 100 µM
CC50 (FHC cells): > 100 µM

O=C(N/N=C/c1ccccc1)c1ccccc1 [Compound 157]
CC50 (FHs-74Int cells): > 100 µM
CC50 (FHC cells): > 100 µM

Cc1ccc(S(=O)(=O)Nc2ccc(-c3nc4cc(NS(=O)(=O)c5ccc(C)cc5)ccc4o3)cc2)cc1 [Compound 162, 4-methyl-N-(4-(5-((4-methylphenyl)sulfonamido)benzo[d]oxazol-2-yl)phenyl)benzenesulfonamide]
GI50 (NCI-60 cancer cell panel [4]): 1 to 5 µM
cell growth % NCI cancer cell panel (NCI-60 cancer cell panel [3]): negative % growth

COc1ccccc1S(=O)(=O)Nc1ccc(-c2nc3cc(NS(=O)(=O)c4ccccc4OC)ccc3o2)cc1 [Compound 164, 2-methoxy-N-(4-(5-((2-methoxyphenyl)sulfonamido)benzo[d]oxazol-2-yl)phenyl)benzenesulfonamide]
GI50 (NCI-60 cancer cell panel [4]): 1 to 5 µM
cell growth % NCI cancer cell panel (NCI-60 cancer cell panel [3]): around 0%

O=C(Nc1ccc(Sc2nc3ccccc3s2)c(Cl)c1)c1cc(Br)ccc1O [Compound 165, N-(4-(Benzo[d]thiazol-2-ylthio)-3-chlorophenyl)-5-bromo-2-hydroxybenzamide]
GI50 (NCI-60 cancer cell panel [4]): 1 to 5 µM
cell growth % NCI cancer cell panel (NCI-60 cancer cell panel [3]): negative % growth

O=C(N/N=C/c1ccc([N+](=O)[O-])o1)c1ccc(O)cc1 [Nifuroxazide (Nfz), Nifuroxazide, reference compound]
EC50 (DLD-1 cells): 1.5 µM
Average Selectivity Index (HCT-116 cells): 7.7
EC50 (HCT-116 cells; [5]): 8.3 µM
CC50 at 48 h [1]: 66 µM
CC50 at 48 h [2]: 62 µM
EC50 (HT-29 cells): 3.5 µM
